One may read the pIC50 as −log10 of the IC50, conventionally taken in molar units.

pIC50: −log10 of the molar value.

The text below walks through data of patent US9994546B2, “Cyclopropylamines as LSD1 inhibitors” (Incyte Corporation, priority 2014, dated 2018).

The target in this test is LSD-1 enzyme (Homo sapiens (Human), UniProt O60341). As to the kind of experiment: LANCE LSD1/KDM1A demethylase assay (LSD1 histone demethylase biochemical assay). The conditions noted are these: 1 nM LSD-1 enzyme, 1 hour preincubation at 25° C., 0.4 μM biotin-labeled Histone H3 peptide substrate. On the procedure: LANCE LSD1/KDM1A demethylase assay—10 μL of 1 nM LSD-1 enzyme (ENZO BML-SE544-0050) in the assay buffer (50 mM Tris, pH 7.5, 0.01% Tween-20, 25 mM NaCl, 5 mM DTT) were preincubated for 1 hour at 25° C. with 0.8 μL compound/DMSO dotted in black 384 well polystyrene plates. […] After stopping the reactions plates were incubated for 30 minutes and read on a PHERAstar FS plate reader (BMG Labtech).
On the technique in general: In TR-FRET formats the signal depends on donor and acceptor labels being close together.
In the case of `N#CCC1(N2CCC(NC3CC3c3ccccc3)CC2)CCC1` (racemic) [Example 1, (1-{4-[(trans-2-Phenylcyclopropyl)amino]piperidin-1-yl}cyclobutyl)acetonitrile], the negative logarithm of the IC50 (pIC50) was at least 7.00.

Regarding `CN1CC(CC#N)(N2CCC(N[C@@H]3C[C@H]3c3ccccc3)CC2)C1` (relative stereo) [Example 2, (1-Methyl-3-{4-[(trans-2-phenylcyclopropyl)amino]piperidin-1-yl}azetidin-3-yl)acetonitrile], the pIC50 is at least 7.00.

`N#CCC1(N2CCC(N[C@@H]3C[C@H]3c3ccccc3)CC2)CNC1` (relative stereo) [Example 3, (3-{4-[(trans-2-Phenylcyclopropyl)amino]piperidin-1-yl}azetidin-3-yl)acetonitrile] had a negative logarithm of the IC50 (pIC50) of at least 7.00.

`N#CCC1(N2CCC(N[C@@H]3C[C@H]3c3ccccc3)CC2)CN(Cc2ccccc2)C1` (relative stereo) [Example 4, (1-Benzyl-3-{4-[(trans-2-phenylcyclopropyl)amino]piperidin-1-yl}azetidin-3-yl)acetonitrile] showed a pIC50 of at least 7.00.

With `N#CCC1(N2CCC(N[C@@H]3C[C@H]3c3ccccc3)CC2)CN(CCC(=O)O)C1` (relative stereo) [Example 5, 3-(3-(Cyanomethyl)-3-{4-[(trans-2-phenylcyclopropyl)amino]piperidin-1-yl}azetidin-1-yl)propanoic acid], the negative-log IC50 (pIC50) is at least 7.00.

For `CC(=O)N1CC(CC#N)(N2CCC(N[C@@H]3C[C@H]3c3ccccc3)CC2)C1` (relative stereo) [Example 6, (1-Acetyl-3-{4-[(trans-2-phenylcyclopropyl)amino]piperidin-1-yl}azetidin-3-yl)acetonitrile], the pIC50 is at least 7.00.

For `N#CCC1(N2CCC(N[C@@H]3C[C@H]3c3ccccc3)CC2)CN(C(=O)c2ccccc2)C1` (relative stereo) [Example 7, (1-Benzoyl-3-{4-[(trans-2-phenylcyclopropyl)amino]piperidin-1-yl}azetidin-3-yl)acetonitrile], the pIC50 was at least 7.00.

`COC(=O)N1CC(CC#N)(N2CCC(N[C@@H]3C[C@H]3c3ccccc3)CC2)C1` (relative stereo) [Example 8, Methyl 3-(cyanomethyl)-3-{4-[(trans-2-phenylcyclopropyl)amino]piperidin-1-yl}azetidine-1-carboxylate] gave a pIC50 of at least 7.00.

In turn, `CS(=O)(=O)N1CC(CC#N)(N2CCC(N[C@@H]3C[C@H]3c3ccccc3)CC2)C1` (relative stereo) [Example 9, (1-(Methylsulfonyl)-3-{4-[(trans-2-phenylcyclopropyl)amino]piperidin-1-yl}azetidin-3-yl)acetonitrile] had a negative-log IC50 (pIC50) of at least 7.00.

Turning to `N#CCC1(N2CCC(N[C@@H]3C[C@H]3c3ccccc3)CC2)CN(c2ncccc2C#N)C1` (relative stereo) [Example 10, 2-(3-(Cyanomethyl)-3-{4-[(trans-2-phenylcyclopropyl)amino]piperidin-1-yl}azetidin-1-yl)nicotinonitrile], the pIC50 is at least 7.00.

On to `N#CCC1(N2CCC(N[C@@H]3C[C@H]3c3ccccc3)CC2)CN(c2ccc(C(=O)O)cc2C#N)C1` (relative stereo) [Example 11, 3-Cyano-4-(3-(cyanomethyl)-3-{4-[(trans-2-phenylcyclopropyl)amino]piperidin-1-yl}azetidin-1-yl)benzoic acid], for which the negative-log IC50 (pIC50) is 6.30 to 7.00.

`N#CCC1(N2CCC(N[C@@H]3C[C@H]3c3ccccc3)CC2)CN(c2ccccc2C#N)C1` (relative stereo) [Example 12, 2-(3-(Cyanomethyl)-3-{4-[(trans-2-phenylcyclopropyl)amino]piperidin-1-yl}azetidin-1-yl)benzonitrile] gave a pIC50 of at least 7.00.

Take `N#CCC1(N2CCC(N[C@@H]3C[C@H]3c3ccccc3)CC2)CN(c2ccc(C#N)cc2)C1` (relative stereo) [Example 13, 4-(3-(Cyanomethyl)-3-{4-[(trans-2-phenylcyclopropyl)amino]piperidin-1-yl}azetidin-1-yl)benzonitrile]: the pIC50 is at least 7.00.

In turn, `N#CCC1(N2CC(CN[C@@H]3C[C@H]3c3ccccc3)C2)CCC1` (relative stereo) [Example 14, [1-(3-{[(trans-2-Phenylcyclopropyl)amino]methyl}azetidin-1-yl)cyclobutyl]acetonitrile] showed a negative logarithm of the IC50 (pIC50) of at least 7.00.

For `CCS(=O)(=O)N1CC(CC#N)(N2CC(CN[C@@H]3C[C@H]3c3ccccc3)C2)C1` (relative stereo) [Example 15, (1′-(Ethylsulfonyl)-3-{[(trans-2-phenylcyclopropyl)amino]methyl}-1,3′-biazetidin-3′-yl)acetonitrile], the pIC50 was at least 7.00.

`N#CCC1(N2CC(CN[C@@H]3C[C@H]3c3ccccc3)C2)CCNCC1` (relative stereo) [Example 16, [4-(3-{[(trans-2-Phenylcyclopropyl)amino]methyl}azetidin-1-yl)piperidin-4-yl]acetonitrile]: the pIC50 is at least 7.00.

For `CN1CCC(CC#N)(N2CC(CN[C@@H]3C[C@H]3c3ccccc3)C2)CC1` (relative stereo) [Example 17, [1-Methyl-4-(3-{[(trans-2-phenylcyclopropyl)amino]methyl}azetidin-1-yl)piperidin-4-yl]acetonitrile], the pIC50 is at least 7.00.

`CC(=O)N1CCC(CC#N)(N2CC(CN[C@@H]3C[C@H]3c3ccccc3)C2)CC1` (relative stereo) [Example 18, [1-Acetyl-4-(3-{[(trans-2-phenylcyclopropyl)amino]methyl}azetidin-1-yl)piperidin-4-yl]acetonitrile] gave a pIC50 of at least 7.00.

`N#CCC1(N2CC(CN[C@@H]3C[C@H]3c3ccccc3)C2)CCN(C(=O)c2ccc(F)cc2)CC1` (relative stereo) [Example 19, [1-(4-Fluorobenzoyl)-4-(3-{[(trans-2-phenylcyclopropyl)amino]methyl}azetidin-1-yl)piperidin-4-yl]acetonitrile]: the pIC50 was at least 7.00.

In the case of `CS(=O)(=O)N1CCC(CC#N)(N2CC(CN[C@@H]3C[C@H]3c3ccccc3)C2)CC1` (relative stereo) [Example 20, [1-(Methylsulfonyl)-4-(3-{[(trans-2-phenylcyclopropyl)amino]methyl}azetidin-1-yl)piperidin-4-yl]acetonitrile], the pIC50 is at least 7.00.

For the compound `N#CCC1(N2CC(CN[C@@H]3C[C@H]3c3ccccc3)C2)CCN(S(=O)(=O)c2ccccc2)CC1` (relative stereo) [Example 21, [4-(3-{[(trans-2-Phenylcyclopropyl)amino]methyl}azetidin-1-yl)-1-(phenylsulfonyl)piperidin-4-yl]acetonitrile], the pIC50 is at least 7.00.

Take `CCOC(=O)N1CCC(CC#N)(N2CC(CN[C@@H]3C[C@H]3c3ccccc3)C2)CC1` (relative stereo) [Example 22, Ethyl 4-(cyanomethyl)-4-(3-{[(trans-2-phenylcyclopropyl)amino]methyl}azetidin-1-yl)piperidine-1-carboxylate]: the pIC50 was at least 7.00.

As for `CN(C)C(=O)N1CCC(CC#N)(N2CC(CN[C@@H]3C[C@H]3c3ccccc3)C2)CC1` (relative stereo) [Example 23, 4-(Cyanomethyl)-N,N-dimethyl-4-(3-{[(trans-2-phenylcyclopropyl)amino]methyl}azetidin-1-yl)piperidine-1-carboxamide], the negative-log IC50 (pIC50) is at least 7.00.

Consider `CC(C)NC(=O)N1CCC(CC#N)(N2CC(CN[C@@H]3C[C@H]3c3ccccc3)C2)CC1` (relative stereo) [Example 24, 4-(Cyanomethyl)-N-isopropyl-4-(3-{[(trans-2-phenylcyclopropyl)amino]methyl}azetidin-1-yl)piperidine-1-carboxamide], for which the negative logarithm of the IC50 (pIC50) is at least 7.00.

Consider `N#CCC1(N2CC(CN[C@@H]3C[C@H]3c3ccccc3)C2)CCN(C(=O)Nc2ccc(F)cc2)CC1` (relative stereo) [Example 25, 4-(Cyanomethyl)-N-(4-fluorophenyl)-4-(3-{[(trans-2-phenylcyclopropyl)amino]methyl}azetidin-1-yl)piperidine-1-carboxamide], for which the pIC50 was at least 7.00.

Compound `N#CCC1(N2CC(CN[C@@H]3C[C@H]3c3ccccc3)C2)CNC1` (relative stereo) [Example 26, (3-{[(trans-2-Phenylcyclopropyl)amino]methyl}-1,3′-biazetidin-3′-yl)acetonitrile] showed a negative logarithm of the IC50 (pIC50) of at least 7.00.

The compound `CN1CCC(N2CC(CN[C@@H]3C[C@H]3c3ccccc3)C2)CC1` (relative stereo) [Example 28, N-{[1-(1-Methylpiperidin-4-yl)azetidin-3-yl]methyl}-trans-2-phenylcyclopropanamine] gave a pIC50 of at least 7.00.

For `c1ccc([C@@H]2C[C@H]2NCC2CN(C3CCN(c4ccccc4)CC3)C2)cc1` (relative stereo) [Example 29, Trans-2-phenyl-N-{[1-(1-phenylpiperidin-4-yl)azetidin-3-yl]methyl}cyclopropanamine], the negative-log IC50 (pIC50) is at least 7.00.

In the case of `CCS(=O)(=O)N1CC(CC#N)(N2CCC(CN[C@@H]3C[C@H]3c3ccccc3)CC2)C1` (relative stereo) [Example 31, [1-(Ethylsulfonyl)-3-(4-{[(trans-2-phenylcyclopropyl)amino]methyl}piperidin-1-yl)azetidin-3-yl]acetonitrile], the pIC50 is 6.30 to 7.00.

Compound `N#CCC1(N2CCC(CN[C@@H]3C[C@H]3c3ccccc3)CC2)CCC1` (relative stereo) [Example 32, [1-(4-{[(trans-2-Phenylcyclopropyl)amino]methyl}piperidin-1-yl)cyclobutyl]acetonitrile] had a pIC50 of at least 7.00.

In turn, `N#CCC1(N2CCC(CN[C@@H]3C[C@H]3c3ccccc3)CC2)CNC1` (relative stereo) [Example 33, [3-(4-{[(trans-2-Phenylcyclopropyl)amino]methyl}piperidin-1-yl)azetidin-3-yl]acetonitrile] gave a pIC50 of at least 7.00.
